# Laboratory results taken from patent US20080311657A1, “Killing Human Lymphoma and Leukemia Cancer Cells and Tcr-Activated Normal Human Cells By Dopamine D1r Agonists” (priority 2005, published 2008).
# How the values were obtained:
# Assay type in all cases: cell-based
# [1] = system: Human cutaneous Sezary T-lymphoma cells (HuT-78); test: Number of living cells counted by flow cytometry (FACSort) after D1R agonist; settings: 10^−3M-10^−6M, 3 days
# Protocol: Human cutaneous Sezary T-lymphoma cells (HUT-78) were seeded in 96 well plates (0.5 ml per well of 0.5 million cells/ml) and A 77636 hydrochloride was added and diluted 1:00 into the wells at starting concentrations of 10^−1M-10^−4M, so that the final concentration range tested was 10^−3M-10^−6M. Afterwards, the microtiter plates were placed in an incubator (37° C., humidified incubator, 5% CO2) for 3 days. Then, the number of living cells was evaluated by flow cytometry (the cells were counted by FACsort for a fixed time length of 1 min, in which 100 microliter of each sample was tested).
# Human cutaneous Sezary T-lymphoma cells (HUT-78) were seeded in 96 well plates (0.5 ml per well of 0.5 million cells/ml) and A 68930 hydrochloride was added and diluted 1:00 into the wells at starting concentrations of 10^−1M-10^−4M, so that the final concentration range tested was 10^−3M-10^−6M. Afterwards, the microtiter plates were placed in an incubator (37° C., humidified incubator, 5% CO2) for 3 days. Then, the number of living cells was evaluated by flow cytometry (the cells were counted by FACsort for a fixed time length of 1 min, in which 100 microliter of each sample was tested).
# Human cutaneous Sezary T-lymphoma cells (HUT-78) were seeded in 96 well plates (0.5 ml per well of 0.5 million cells/ml) and SKF 38393 hydrobromide was added and diluted 1:00 into the wells at starting concentrations of 10^−1M-10^−4M, so that the final concentration range tested was 10^−3M-10^−6M. Afterwards, the microtiter plates were placed in an incubator (37° C., humidified incubator, 5% CO2) for 3 days. Then, the number of living cells was evaluated by flow cytometry (the cells were counted by FACsort for a fixed time length of 1 min, in which 100 microliter of each sample was tested).
# Cell viability was tested afterwards. […]
# Cell survival/death was evaluated 3 days later by counting the number of living cells, using flow cytometry.
# [2] = system: Human chronic myelogenous leukemia cells (CML) (K-562); test: as above; settings: for % of the cells killed: living cells counted 3 days later
# [3] = system: Human Burkitt's B-lymphoma cells (Raji); test: Cell death by LDH release (CytoTox 96); settings: 10^−4M
# Protocol: Human Burkitt's B-lymphoma cells (Raji) were seeded in 96 well plates (0.5 ml per well of 0.5 million cells/ml) and A 77636 hydrochloride was added and diluted 1:00 into the wells, at a fixed starting concentration of 10^−2M, so that the final concentration tested was 10^−4M. The cells were then transferred to an incubator (37° C., humidified incubator, 5% CO2) for 1 min, 10 min, 30 min, 60 min or 120 min incubation.
structure (smiles),measurement,setting,value
"Cl.NC[C@@H]1O[C@H](C23CC4CC(CC(C4)C2)C3)Cc2c1ccc(O)c2O [A 77636 hydrochloride, (1R-cis)-1-(aminomethyl)-3,4-dihydro-3-tricyclo[3.3.1.13,7]dec-1-yl-[1H]-2-benzopyran-5,6-diol hydrochloride]","Cell death by number of living cells (FIGS. 13-15), in words",[1],induces marked cell death
same,"Cell death by number of living cells (FIGS. 22-24), in words","[2]; 10^−3M-10^−6M, 3 days",induces marked cell death
same,% of the cells killed,"[2]; 10^−4M, exposure 1 minute then washed",≈ 48%
same,% of the cells killed,"[2]; 10^−4M, exposure 15 minutes then washed",60%
same,% of the cells killed,"[2]; 10^−4M, exposure 1 hour then washed",76%
same,"Killing, in words","[2]; 10^−4M, incubation 72 hours",no additional value beyond the 1-hour effect
same,"Speed of cell death by number of living cells (FIG. 29), in words","[2]; 10^−4M, exposure 1 min, 15 min, 1 hr or 72 hr",very rapid death
same,Exposure time at which extent of cell death reaches a plateau,[3]; LDH release,1 h
same,Elevation in the release of LDH,[3]; exposure for 1 minute,≈ 3 fold
same,"Speed of cell death by LDH release (FIG. 28), in words","[3]; 1, 10, 30, 60 or 120 min",very rapid death
